Experimental findings from PubChem BioAssay AID330 (DTP/NCI, 2004) are described below.

“And” between values parts separate entries of the source, which are not always exact repeats. Equal entries are not always repeated. Inconclusive results and toxic doses are left out.

In the assay the test system is P388 leukemia ip, CD2F1 mice, survival T/C. Description: NCI In Vivo Anticancer Drug Screen. Data for tumor model P388 Leukemia (intraperitoneal) in CD2F1 (CDF1) mice. The following applies: endpoint: median survival time, higher = longer survival. In outline: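 Mice carrying the transplanted tumor received test compound or vehicle. Survival was recorded in each group, and the value is the treated-group measurement divided by that of the vehicle-treated control group.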

The mark [1] stands for this setting: dose: 50.0 mg/kg/injection, schedule: Q01DX005 (ip), vehicle: Klucel (hydroxypropylcellulose) (HPC).
Setting [2] is: dose: 100.0 mg/kg/injection, schedule: Q01DX005 (ip), vehicle: Klucel (hydroxypropylcellulose) (HPC).
Setting [3] is: dose: 200.0 mg/kg/injection, schedule: Q01DX005 (ip), vehicle: Klucel (hydroxypropylcellulose) (HPC).
The mark [4] stands for this setting: dose: 50.0 mg/kg/injection, schedule: Q01DX009 (ip), vehicle: Klucel (hydroxypropylcellulose) (HPC).
Setting [5] is: dose: 120.0 mg/kg/injection, schedule: Q01DX005 (ip), vehicle: Klucel (hydroxypropylcellulose) (HPC).
Where [6] appears, read: dose: 25.0 mg/kg/injection, schedule: Q01DX009 (ip), vehicle: saline.
The mark [7] stands for this setting: dose: 50.0 mg/kg/injection, schedule: Q01DX009 (ip), vehicle: saline.
Setting [8] is: dose: 60.0 mg/kg/injection, schedule: Q01DX005 (ip), vehicle: saline with Tween-80.
[9] abbreviates: dose: 120.0 mg/kg/injection, schedule: Q01DX005 (ip), vehicle: saline with Tween-80.
Setting [10] is: dose: 240.0 mg/kg/injection, schedule: Q01DX005 (ip), vehicle: saline with Tween-80.
The mark [11] stands for this setting: dose: 60.0 mg/kg/injection, schedule: Q01DX005 (ip), vehicle: Klucel (hydroxypropylcellulose) (HPC).

As for `CC1(c2cccs2)NC(=O)NC1=O` (configuration not stated), the T/C was 100 % of control (dose: 25.0 mg/kg/injection, schedule: Q01DX009 (ip), vehicle: saline with Tween-80); 109 % of control (dose: 50.0 mg/kg/injection, schedule: Q01DX009 (ip), vehicle: saline with Tween-80); 98 % of control (dose: 100.0 mg/kg/injection, schedule: Q01DX009 (ip), vehicle: saline with Tween-80); 104 % of control (dose: 200.0 mg/kg/injection, schedule: Q01DX009 (ip), vehicle: saline with Tween-80); 101 % of control (dose: 400.0 mg/kg/injection, schedule: Q01DX009 (ip), vehicle: saline with Tween-80).
Take `C=CCCc1ccccc1/C=N/NS(=O)(=O)c1ccc(C)cc1`: the T/C by setting is: (dose: 100.0 mg/kg/injection, schedule: Q01DX001 (ip), vehicle: saline with Tween-80) 97 % of control; (dose: 200.0 mg/kg/injection, schedule: Q01DX001 (ip), vehicle: saline with Tween-80) 88 % of control; (dose: 400.0 mg/kg/injection, schedule: Q01DX001 (ip), vehicle: saline with Tween-80) 101 % of control.
Take `COc1cc(CCN=Cc2cc(Cl)cc(Cl)c2O)c([N+](=O)[O-])cc1OC`: the T/C reads like this: under setting [1], 93 % of control; under setting [2], 102 % of control; under setting [3], 111 % of control.
`COc1ccc(/C=N\NC(=O)C(=O)N/N=C\c2ccc(OC)c(OC)c2)cc1OC`: the T/C (dose: 12.5 mg/kg/injection, schedule: Q01DX009 (ip), vehicle: Klucel (hydroxypropylcellulose) (HPC)) is 93 % of control; the T/C (dose: 25.0 mg/kg/injection, schedule: Q01DX009 (ip), vehicle: Klucel (hydroxypropylcellulose) (HPC)) is 93 % of control; the T/C under setting [4] is 86 % of control and 88 % of control.
For the compound `CCC(C)/C(=C\C#N)NCCCN/C(=C/C#N)C(C)CC` (configuration not stated), the T/C reads like this: (dose: 3.75 mg/kg/injection, schedule: Q01DX005 (ip), vehicle: Klucel + Tween-80) 100 % of control; (dose: 7.5 mg/kg/injection, schedule: Q01DX005 (ip), vehicle: Klucel + Tween-80) 109 % of control; (dose: 15.0 mg/kg/injection, schedule: Q01DX005 (ip), vehicle: Klucel + Tween-80) 92 % of control and 98 % of control; (dose: 60.0 mg/kg/injection, schedule: Q01DX005 (ip), vehicle: Klucel + Tween-80) 86 % of control; under setting [5], 88 % of control.
For the compound `C1CCC(N2CCOCC2)CC1`, the T/C was 99 % of control (dose: 12.5 mg/kg/injection, schedule: Q01DX009 (ip), vehicle: saline); 117 % of control under setting [6]; 100 % of control and 101 % of control under setting [7].
Turning to `CC([NH-])C[NH-].O=[N+]([O-])O.O=[N+]([O-])O.[Pt+2]` (configuration not stated), the T/C was 153 % of control (dose: 6.25 mg/kg/injection, schedule: Q04DX002 (ip), vehicle: saline); 100 % of control and 98 % of control (dose: 12.5 mg/kg/injection, schedule: Q04DX002 (ip), vehicle: saline).
As to `COc1ccc(C2COc3c(ccc(O)c3C)C2)cc1OC` (configuration not stated), the T/C is, setting by setting: under setting [8], 97 % of control; under setting [9], 97 % of control; under setting [10], 95 % of control.
For `CC(NC(=O)C(CO)NC(=O)OCc1ccccc1)C(=O)O` (configuration not stated), the T/C was 118 % of control under setting [1], 97 % of control under setting [2] and 108 % of control under setting [3].
Turning to `O=C1C2=C(Nc3cc([N+](=O)[O-])ccc3N2)OC1c1c2ccccc2cc2ccccc12` (configuration not stated), the T/C was 94 % of control under setting [11] and 88 % of control under setting [5].
Take `OCC(O)/C=C/c1ccccc1` (configuration not stated): the T/C (dose: 100.0 mg/kg/injection, schedule: Q01DX001 (ip), vehicle: Klucel (hydroxypropylcellulose) (HPC)) is 95 % of control; the T/C (dose: 100.0 mg/kg/injection, schedule: Q04DX002 (ip), vehicle: saline with Tween-80) is 96 % of control; the T/C (dose: 200.0 mg/kg/injection, schedule: Q01DX001 (ip), vehicle: Klucel (hydroxypropylcellulose) (HPC)) is 103 % of control; the T/C (dose: 200.0 mg/kg/injection, schedule: Q04DX002 (ip), vehicle: saline with Tween-80) was 90 % of control; the T/C (dose: 400.0 mg/kg/injection, schedule: Q01DX001 (ip), vehicle: Klucel (hydroxypropylcellulose) (HPC)) is 108 % of control; the T/C (dose: 400.0 mg/kg/injection, schedule: Q04DX002 (ip), vehicle: saline with Tween-80) is 99 % of control.
As to `CC(C)c1ccc(C(=O)CCCCl)cc1`, the T/C is 109 % of control (dose: 100.0 mg/kg/injection, schedule: Q04DX003 (ip), vehicle: saline with Tween-80); 100 % of control (dose: 200.0 mg/kg/injection, schedule: Q04DX003 (ip), vehicle: saline with Tween-80); 104 % of control (dose: 400.0 mg/kg/injection, schedule: Q04DX003 (ip), vehicle: saline with Tween-80).
For `CCc1nc(N)nc(N)c1-c1ccc(N(C)C2CCCCC2)c([N+](=O)[O-])c1`, the T/C under setting [8] was 105 % of control and 106 % of control; the T/C under setting [9] was 115 % of control; the T/C under setting [10] is 103 % of control; the T/C (dose: 480.0 mg/kg/injection, schedule: Q01DX005 (ip), vehicle: saline with Tween-80) was 168 % of control.
For `CCN(Cc1cccc(S(=O)(=O)O)c1)c1ccc(C(=C2C=CC(=[N+](CC)Cc3cccc(S(=O)(=O)O)c3)C=C2)c2ccccc2)cc1`, the T/C (dose: 50.0 mg/kg/injection, schedule: Q01DX005 (ip), vehicle: saline) was 107 % of control; the T/C (dose: 100.0 mg/kg/injection, schedule: Q01DX005 (ip), vehicle: saline) is 110 % of control; the T/C (dose: 200.0 mg/kg/injection, schedule: Q01DX005 (ip), vehicle: saline) is 115 % of control.
As to `COc1cc(C2N=C(N)N=C(N)N2c2ccc(S(N)(=O)=O)cc2)cc(OC)c1OC` (configuration not stated), the T/C reads like this: under setting [11], 103 % of control; under setting [5], 103 % of control.
Take `CC(=O)CS(C)(=O)=O`: the T/C by setting is: under setting [6], 103 % of control; under setting [7], 102 % of control; (dose: 100.0 mg/kg/injection, schedule: Q01DX009 (ip), vehicle: saline) 101 % of control; (dose: 200.0 mg/kg/injection, schedule: Q01DX009 (ip), vehicle: saline) 98 % of control.
On to `O=C(CCCCCCCCc1ccc(O)c(O)c1)c1c(O)cccc1O`, for which the T/C was 101 % of control (dose: 3.0 mg/kg/injection, schedule: Q01DX009 (ip), vehicle: Klucel (hydroxypropylcellulose) (HPC)); 108 % of control (dose: 12.0 mg/kg/injection, schedule: Q01DX009 (ip), vehicle: Klucel (hydroxypropylcellulose) (HPC)); 101 % of control (dose: 24.0 mg/kg/injection, schedule: Q01DX009 (ip), vehicle: Klucel (hydroxypropylcellulose) (HPC)).
Take `CC(C)(C)c1ccc(CN2CCN(C(c3ccccc3)c3ccc(Cl)cc3)CC2)cc1` (configuration not stated): the T/C is, setting by setting: (dose: 2.0 mg/kg/injection, schedule: Q01DX009 (ip), vehicle: saline with Tween-80) 89 % of control; (dose: 4.0 mg/kg/injection, schedule: Q01DX009 (ip), vehicle: saline with Tween-80) 95 % of control; (dose: 8.0 mg/kg/injection, schedule: Q01DX009 (ip), vehicle: saline with Tween-80) 89 % of control; (dose: 16.0 mg/kg/injection, schedule: Q01DX009 (ip), vehicle: saline with Tween-80) 94 % of control; (dose: 32.0 mg/kg/injection, schedule: Q01DX009 (ip), vehicle: saline with Tween-80) 94 % of control; (dose: 64.0 mg/kg/injection, schedule: Q01DX009 (ip), vehicle: saline with Tween-80) 94 % of control.
On to `C(C#CCN1CCOCC1)#CCN1CCOCC1`, for which the T/C was 109 % of control and 89 % of control under setting [4]; 101 % of control and 89 % of control (dose: 100.0 mg/kg/injection, schedule: Q01DX009 (ip), vehicle: Klucel (hydroxypropylcellulose) (HPC)); 101 % of control and 93 % of control (dose: 200.0 mg/kg/injection, schedule: Q01DX009 (ip), vehicle: Klucel (hydroxypropylcellulose) (HPC)); 98 % of control (dose: 400.0 mg/kg/injection, schedule: Q01DX009 (ip), vehicle: Klucel (hydroxypropylcellulose) (HPC)).
In the case of `COc1ccc2c(c1O)-c1cc(O)cc3c1C(C2)N(C(=O)CN(CCCl)CCCl)CC3` (configuration not stated), the T/C reads like this: (dose: 12.5 mg/kg/injection, schedule: Q04DX003 (ip), vehicle: distilled water + Tween-80) 158 % of control; (dose: 12.5 mg/kg/injection, schedule: Q04DX003 (ip), vehicle: water) 158 % of control; (dose: 25.0 mg/kg/injection, schedule: Q04DX003 (ip), vehicle: distilled water + Tween-80) 114 % of control; (dose: 25.0 mg/kg/injection, schedule: Q04DX003 (ip), vehicle: water) 116 % of control; (dose: 50.0 mg/kg/injection, schedule: Q04DX003 (ip), vehicle: water) 96 % of control.
